Experiments:
IL-6 = IL-6 production in LPS-administered mouse; type: in vivo, male BALB/c mouse; conditions: for IL-6 production in LPS model mouse (in words): 10 mg/kg orally 30 min before LPS; for IL-6 production (%): 10 mg/kg orally 30 min before LPS 500 μg/kg i.p., plasma 90 min after LPS, ratio to group without test compound
Protocol: (§1) LPS (lipopolysaccharide, derived from E. coli 0111:B4, Sigma, 500 μg/kg) was intraperitoneally administered to male BALB/c mouse (Charles River Laboratories Japan). After 90 min after LPS administration, the blood was taken under anesthesia, and centrifuged to collect plasma. TNF-α was measured using an Immunoassay Kit (R&D Systems) and IL-10, MCP-1 and IL-6 were measured using an Immunoassay Kit (BIOSOURCE). Test compound A, the compound synthesized in Example 3 (test compound B) and the compound synthesized in Example 7 (test compound C) were dissolved in saline, and the mixture was orally administered at 10 mg/kg 30 min before LPS administration. As shown in the Tables, the effect of each test compound on respective […] cytokines was calculated as the ratio of each cytokine concentration in the blood of the group administered with each test compound to each cytokine concentration in the blood of the group free of administration of each test compound.

[1] = tested on: rat middle cerebral artery occlusion-reperfusion model; assay: Cerebral infarction volume in rat middle cerebral artery occlusion-reperfusion model; type: in vivo, male Wistar rats; conditions: 10 mg/kg intravenously 30 min after occlusion, reperfusion 90 min after occlusion, brain isolated 24 hr later, TTC stain; FIG. 7
Protocol: The middle cerebral artery of male Wistar rats (Japan Laboratory Animals Inc.) was obstructed with suture (silicon-coated nylon thread), and saline (Vehicle, n=7), test compound A (10 mg/kg, n=6) dissolved in saline, test compound B ([…], n=7) dissolved in saline, and test compound C (10 mg/kg, n=7) dissolved in saline were each intravenously administered in 30 min after occlusion and the artery was reperfused in 90 min after occlusion. The brain was isolated 24 hr later. A 2 mm brain strip was prepared, and the strip was stained with PBS (pH 7.4, 37° C.) containing 1% 2,3,5-triphenyltetrazolium chloride (TTC, Wako Pure Chemical Industries, Ltd.). The cerebral infarction area was measured by image analysis and the cerebral infarction volume was calculated.

IL-10 = IL-10 production in LPS-administered mouse; type: in vivo, male BALB/c mouse; conditions: for IL-10 in LPS model mouse (in words): 10 mg/kg orally 30 min before LPS; for IL-10 production (%): Table 1, 10 mg/kg orally 30 min before LPS 500 μg/kg i.p., plasma 90 min after LPS, ratio to group without test compound
Protocol: as §1

TNF-α = TNF-α production in LPS-administered mouse; type: in vivo, male BALB/c mouse; conditions: for TNF-α production in LPS model mouse (in words): 10 mg/kg orally 30 min before LPS; for TNF-α production (%): Table 1, 10 mg/kg orally 30 min before LPS 500 μg/kg i.p., plasma 90 min after LPS, ratio to group without test compound
Protocol: as §1

[2] = Evaluation of intracerebral transitivity in rat; type: in vivo, SD(IGS) rats; conditions: for Kp at 1 h / Kp at 4 h: SD(IGS), brain, po, 3 mg/kg orally, read-out: Kp value (ratio of plasma concentration and intracerebral concentration); for Kp at 1 h: 1 hr after administration; for Kp at 4 h: 4 hr after administration; for intracerebral transitivity (in words): orally, test compound A 30 mg/kg, test compounds B and C 3 mg/kg
Protocol: The test compound A dissolved in 0.5% aqueous HPMC solution was orally administered at 30 mg/kg, and test compound B and test compound C dissolved in 0.5% aqueous HPMC solution were each orally administered at 3 mg/kg to SD(IGS) rats (Charles River Laboratories Japan). At 1 hr and 4 hr after the administration of the test compound, blood samples were collected, and the brain (cerebral•cerebellum) was isolated. The plasma concentration and intracerebral concentration of each test compound were measured, and the ratio (Kp value) thereof was calculated, based on which the intracerebral transitivity was evaluated.

MCP-1 = MCP-1 production in LPS-administered mouse; type: in vivo, male BALB/c mouse; conditions: for MCP-1 production in LPS model mouse (in words): 10 mg/kg orally 30 min before LPS; for MCP-1 production (%): 10 mg/kg orally 30 min before LPS 500 μg/kg i.p., plasma 90 min after LPS, ratio to group without test compound
Protocol: as §1

[3] = Evaluation of bioavailability in rat; type: in vivo, male SD(IGS) rats; conditions: plasma; for AUC0-last / AUC0-∞ / Cmax at 5 min / Cmax: Mean + SD; for Cmax at 5 min / bioavailability / Cmax: male, SD(IGS); for Cmax at 5 min: iv, read-out: Cmax (C5 min, plasma concentration at 5 min after administration); for bioavailability: oral, 3 mg/kg p.o. vs 3 mg/kg i.v., F = (AUC0-∞,p.o./AUC0-∞,i.v.,mean) × (Dosei.v./Dosep.o.) × 100; for Cmax: po, read-out: Cmax
Protocol: Test compound A, test compound B and test compound C were each dissolved in 0.5% aqueous HPMC (hydroxypropyl methylcellulose) solution in the case of oral administration, or in saline in the case of intravenous administration, and they were orally or intravenously administered to male SD(IGS) rats (Charles River Laboratories Japan) by 3 mg/kg. The concentration of unchanged drug in the plasma of each rat was measured, and bioavailability (F(%)) was calculated (F (%)=(AUC0-∞,p.o./AUC0-∞,i.v.,mean)×(Dosei.v./Dosep.o.)×100). The test compound was administered by gavage using an oral gavage needle (p.o.), or administered in the tail vein (i.v.). The blood samples were collected at 15 and 30 min, 1, 2, 4, 6, 8 and 24 hr after administration in the case of oral administration, and 5 and 30 min, 1, 2, 4, 6, 8 and 24 hr after administration in the case of intravenous administration.
The results are shown in Tables 4 (test compound A), 5 (test compound B) and 6 (test compound C). The Cmax values for i.v. in Tables 4, 5 and 6 show plasma concentration at 5 min after administration.

IL-1β receptor [4] = conditions: non-patent document 6; cited from earlier work
IL-1β receptor [5] = biological target: T1, IL-1β receptor (Homo sapiens, UniProt P14778); conditions: clinical trial (Phase II); non-patent document 7; cited from earlier work
T1 sequence (P14778 18-569): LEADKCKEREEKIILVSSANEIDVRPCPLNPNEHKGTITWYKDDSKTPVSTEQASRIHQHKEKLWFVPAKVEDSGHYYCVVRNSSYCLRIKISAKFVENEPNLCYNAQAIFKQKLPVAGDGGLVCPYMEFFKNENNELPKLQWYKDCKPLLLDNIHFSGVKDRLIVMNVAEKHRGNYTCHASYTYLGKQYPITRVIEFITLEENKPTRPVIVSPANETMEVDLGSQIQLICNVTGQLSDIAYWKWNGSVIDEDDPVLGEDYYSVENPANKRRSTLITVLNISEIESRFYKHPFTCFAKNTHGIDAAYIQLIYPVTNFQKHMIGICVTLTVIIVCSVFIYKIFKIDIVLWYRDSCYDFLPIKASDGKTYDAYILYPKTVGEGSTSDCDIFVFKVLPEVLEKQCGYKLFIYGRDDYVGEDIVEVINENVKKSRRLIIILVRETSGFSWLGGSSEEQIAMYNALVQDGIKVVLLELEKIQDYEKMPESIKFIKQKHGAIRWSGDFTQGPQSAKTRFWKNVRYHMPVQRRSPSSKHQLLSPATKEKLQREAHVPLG

Compound: CC(=O)NC1(c2ccc(CN3C[C@@H]4C[C@H]3CN4c3ncccn3)cc2)CC1 [test compound B, N-[1-(4-{[(1S,4S)-5-(pyrimidin-2-yl)-2,5-diazabicyclo[2.2.1]hept-2-yl]methyl}phenyl)cyclopropyl]acetamide]
- IL-6 production in LPS model mouse (in words) (IL-6): suppressed
- IL-6 production (%) (IL-6; Table 2): 78.7%
- suppression of cerebral infarction volume [1]: 17.8%
- IL-10 in LPS model mouse (in words) (IL-10): increased
- IL-10 production (%) (IL-10): 350.1%
- TNF-α production in LPS model mouse (in words) (TNF-α): suppressed
- TNF-α production (%) (TNF-α): 53.9%
- Kp at 1 h [2]: 0.8
- Kp at 4 h [2]: 1.3
- intracerebral transitivity (in words) [2]: intracerebrally transferred
- MCP-1 production in LPS model mouse (in words) (MCP-1): suppressed
- MCP-1 production (%) (MCP-1; Table 2): 63.9%
- AUC0-last ([3]; 3 mg/kg i.v.): 1449.8 ± 123.3 ngh/mL
- AUC0-∞ ([3]; 3 mg/kg i.v.): 1464.6 ± 122.3 ngh/mL
- AUC0-last ([3]; 3 mg/kg p.o.): 1082.8 ± 171.1 ngh/mL
- AUC0-∞ ([3]; 3 mg/kg p.o.): 1105.7 ± 170.8 ngh/mL
- Cmax at 5 min ([3]; 3 mg/kg i.v.): 1600 ± 58.3 ng/mL
- bioavailability [3]: 75.5%
- Cmax ([3]; 3 mg/kg p.o.): 471 ng/mL

Compound: CC(=O)NC1(c2ccc(CN3CCN(c4ncccn4)CC3)cn2)CC1 [test compound C, N-(1-{5-[{4-(pyrimidin-2-yl)piperazin-1-yl}methyl]pyridin-2-yl}cyclopropyl)acetamide]
- IL-6 production in LPS model mouse (in words) (IL-6): suppressed
- IL-6 production (%) (IL-6; Table 3): 81%
- suppression of cerebral infarction volume [1]: 43.2%
- IL-10 in LPS model mouse (in words) (IL-10): increased
- IL-10 production (%) (IL-10): 401.4%
- TNF-α production in LPS model mouse (in words) (TNF-α): suppressed
- TNF-α production (%) (TNF-α): 50.6%
- Kp at 1 h [2]: 0.8
- Kp at 4 h [2]: 0.9
- intracerebral transitivity (in words) [2]: intracerebrally transferred
- MCP-1 production in LPS model mouse (in words) (MCP-1): suppressed
- MCP-1 production (%) (MCP-1; Table 3): 72.1%
- AUC0-last ([3]; 3 mg/kg i.v.): 10173.6 ± 3012.9 ngh/mL
- AUC0-∞ ([3]; 3 mg/kg i.v.): 10446.3 ± 2852.3 ngh/mL
- AUC0-last ([3]; 3 mg/kg p.o.): 8192.2 ± 3114.3 ngh/mL
- AUC0-∞ ([3]; 3 mg/kg p.o.): 8434.3 ± 2981.5 ngh/mL
- Cmax at 5 min ([3]; 3 mg/kg i.v.): 4510 ± 359 ng/mL
- bioavailability [3]: 80.7%
- Cmax ([3]; 3 mg/kg p.o.): 2000 ng/mL

Compound: recombinant IL-1ra: an IL-1β receptor antagonist (recombinant IL-1ra)
- cerebral ischemic disorder (IL-1β receptor [4]): alleviating action
- cerebral ischemic disorder (IL-1β receptor [5]): alleviating effect

Source: patent publication US8835631B2, “Therapeutic agent for cerebral infarction” (Mitsubishi Tanabe Pharma Corporation, priority 2007, dated 2014)
